Measured values: US7705009B2, “4-aminopyrimidine-5-thione derivatives” (Hoffman-La Roche Inc., priority 2005, dated 2010)
Where two headings read alike, the source gives them in different places.

Experiments:
human cyclin B-CDK1 = human cyclin B-CDK1 (Homo sapiens, UniProt P06493); test: CDK1 HTRF kinase assay (Ki measurement); type: biochemical; details: ATP at 3x Km
Procedure: (§1) To determine inhibition of Cdk4, Cdk2 and Cdk1 activity, kinase assays were conducted using FlashPlate™ assays (NEN™-Life Science Products). FlashPlate assays were performed using recombinant human cyclin B-CDK1, human cyclin E-CDK2 or human cyclin D1-CDK4 complexes. GST-cyclinE (GST-cycE), CDK2, GST-cyclinB (GST-cycB), CDK1, GST-CDK4 and cyclin D1 (cycD1) cDNA clones in baculovirus vectors were provided by Dr. W. Harper at the Baylor College of Medicine, Houston, Tex.
(§2) Alternatively, inhibition activity may be measured using Ki. […] These were done in 96-well format and read in 384-well plate format. The assays were run at 3× their respective Kms for ATP.
Twenty microliters were added to the wells of a 96-well plate. […] Blank wells without CDK4 were included. The plates were incubated at 37° C. for 30 minutes with shaking. […] After 30 minutes at 37° C., 15 μl/well of 3 nM Lance-Eu-W1024 labeled anti-rabbit IgG and 60 nM Allophycocyanin conjugated anti-His6 (PerkinElmer Life Sciences) in 25 mM Hepes, pH 7.0, 0.5 mg/ml BSA were added. Following a one hour incubation at 37 deg C., 35 μl of each well, in duplicate, were transferred to 384-well black plates. The plates were read using either ViewLux or Victor V readers (PerkinElmer Life Sciences) using an excitation wavelength of 340 nm and dual emission wavelengths of 615 nm and 665 nm. […] For ATP competitive inhibitors, the Ki values were calculated according to the following equation: Ki=IC50/(1+S/Km) where S refers to the substrate concentration and Km refers to the Michaelis-Menten constant.
(§3) The CDK1 and CDK2 assays were similarly run except for small differences in reagent and protein concentrations:
The compound and enzyme buffers for both assays contained 10 mM MgCl2. […] CDK1 at a reagent concentration of 0.15 ng/ul and CDK2 at a reagent concentration of 0.06 ng/ul were used.

human cyclin E-CDK2 = human cyclin E-CDK2 (Homo sapiens, UniProt P24941); test: CDK2 HTRF kinase assay (Ki measurement); type: biochemical
Procedure: as §1, §2
Twenty microliters were added to the wells of a 96-well plate. […] Blank wells without CDK4 were included. The plates were incubated at 37° C. for 30 minutes with shaking. […] After 30 minutes at 37° C., 15 μl/well of 3 nM Lance-Eu-W1024 labeled anti-rabbit IgG and 60 nM Allophycocyanin conjugated anti-His6 (PerkinElmer Life Sciences) in 25 mM Hepes, pH 7.0, 0.5 mg/ml BSA were added. Following a one hour incubation at 37 deg C., 35 μl of each well, in duplicate, were transferred to 384-well black plates. The plates were read using either ViewLux or Victor V readers (PerkinElmer Life Sciences) using an excitation wavelength of 340 nm and dual emission wavelengths of 615 nm and 665 nm.
as §3
The compound and enzyme buffers for both assays contained 10 mM MgCl2.

human cyclin D1-CDK4 = human cyclin D1-CDK4 (Homo sapiens, UniProt P11802); test: CDK4 HTRF kinase assay (Ki measurement); type: biochemical; details: ATP at 3x Km
Procedure: To determine inhibition of Cdk4, Cdk2 and Cdk1 activity, kinase assays were conducted using FlashPlateTM assays (NENTM-Life Science Products). […] W. Harper at the Baylor College of Medicine, Houston, Tex. Proteins were co-expressed in High FiveTM insect cells and the complex was purified on glutathione Sepharose resin (Pharmacia, Piscataway, N.J.) as previously described (Harper, J. W. et al. Cell 1993, 75, 805-816). A 6×-Histidine tagged […]) was used as the substrate for the cycD1-CDK4, cycB-CDK1 and the cycE-CDK2 assays (the expression plasmid was provided by Dr. Veronica Sullivan, Department of Molecular Virology, Roche Research Centre, Welwyn Garden City, United Kingdom). The Rb protein is a natural substrate for phosphorylation by CDK4, CDK2 and CDK1 (see Herwig and Strauss Eur. J. Biochem. Vol. 246 (1997) pp. 581-601 and the references cited therein). Alternatively, inhibition activity may be measured using Ki. Using the protein constructs described above in Example 19A above, CDK1, CDK2, and CDK4 HTRF assays were set up. These were done in 96-well format and read in 384-well plate format. The assays were run at 3× their respective Kms for ATP. In the CDK4 assay, test compounds were diluted to 3× their final concentrations in 25 mM Hepes, pH 7.0, 6.25 mM MgCl2, 1.5 mM DTT, 135 μM ATP. The DMSO concentration was no greater than 4.76%. Twenty microliters were added to the wells of a 96-well plate. The kinase reaction was initiated by the addition of 40 μl/well of a solution containing 0.185 μM Rb and 2.25 μg/ml CDK4 in 25 mM Hepes, pH 7.0, 6.25 mM MgCl2, 0.003% Tween-20, 0.3 mg/ml BSA, 1.5 mM DTT. Blank wells without CDK4 were included. The plates were incubated at 37° C. for 30 minutes with shaking. The kinase reaction was terminated by the addition of 15 μl/well of 1.6 uM anti-phospho-Rb ([…]) antibody (Cell Signaling Inc.) in 25 mM Hepes, pH 7.0, 24 mM EDTA, 0.2 mg/ml BSA. After 30 minutes at 37° C., 15 μl/well of 3 nM Lance-Eu-W1024 labeled anti-rabbit IgG and 60 nM Allophycocyanin conjugated anti-His6 (PerkinElmer Life Sciences) in 25 mM Hepes, pH 7.0, 0.5 mg/ml BSA were added. Following a one hour incubation at 37 deg C., 35 μl of each well, in duplicate, were transferred to 384-well black plates. The plates were read using either ViewLux or Victor V readers (PerkinElmer Life Sciences) using an excitation wavelength of 340 nm and dual emission wavelengths of 615 nm and 665 nm. IC50 values (the concentration of test compounds reducing the assay control fluorescence read-out by 50%) were first calculated from net readings at 665 nm, normalized for europium readings at 615 nm. For ATP competitive inhibitors, the Ki values were calculated according to the following equation: […]

[1] = system: HCT116 colorectal carcinoma cell line; test: Tetrazolium dye proliferation assay (MTT assay); type: cell-based; details: Homo sapiens, HCT-116, HCT116 cells
Procedure: Proliferation was evaluated by the tetrazolium dye assay according to the procedure of Denizot and Lang (Denizot, F. and Lang, R. J Immunol Methods 1986, 89, 271-277). The cell line used was HCT116, a colorectal carcinoma cell line obtained from the American Type Cell Culture Collection (ATCC; Rockville, Md.). The cells were grown in McCoy's 5A medium supplemented with 10% FCS and L-glutamine.
Cells were plated at the appropriate seeding density to give logarithmic growth over the course of the assay in a 96-well tissue culture plate. Plates were incubated overnight at 37° C. in a humidified incubator with 5% CO2. The next day, test compounds were serially diluted to four times the final concentration in the appropriate medium containing 1.2% DMSO. One-fourth final volume of each dilution was added in duplicate to the plates containing cells. The same volume of 1.2% DMSO in medium was added to a row of “control wells” such that the final concentration of DMSO in each well was 0.3%. Wells to which no cells were added served as the “blank.” Wells to which no inhibitor was added served as “no inhibitor control.” The plates were) returned to the incubator, and at set time points (determined by their growth curves) plates were analyzed as described below.
3-(4,5-dimethylthiazole-2-yl)-2,5-diphenyl-2H-tetrazolium bromide (thiazolyl blue; MTT; Sigma) was added to each well to yield a final concentration of 1 mg/ml. Plates were returned to the incubator for 2.5-3 hours at 37° C. The MTT-containing medium was removed and the resulting formazan metabolite was solubilized in 100% ethanol with shaking for 15 minutes at room temperature. Absorbance readings were taken in a microtiter plate reader (Dynatech and Molecular Devices plate readers were used interchangeably) at a wavelength of 570 nm with a 650 nm reference. Percent inhibition (% INH) is calculated by subtracting the absorbance of the blank well from all wells, then subtracting the ratio of the average absorbance of each test duplicate (SAVE) by the average of the controls (CAVE) from 1.00. The final number is then multiplied by 100 (% INH=(1.00−SAVE/CAVE)×100). The concentration at which 50% inhibition of cell proliferation is obtained (the IC50) is determined from the linear regression of a plot of the logarithm of the concentration versus percent inhibition.

[2] = HTRF assay, ATP at 3x Km, read-out: Ki CDK2

Sequence of human cyclin D1-CDK4 (P11802 whole entry): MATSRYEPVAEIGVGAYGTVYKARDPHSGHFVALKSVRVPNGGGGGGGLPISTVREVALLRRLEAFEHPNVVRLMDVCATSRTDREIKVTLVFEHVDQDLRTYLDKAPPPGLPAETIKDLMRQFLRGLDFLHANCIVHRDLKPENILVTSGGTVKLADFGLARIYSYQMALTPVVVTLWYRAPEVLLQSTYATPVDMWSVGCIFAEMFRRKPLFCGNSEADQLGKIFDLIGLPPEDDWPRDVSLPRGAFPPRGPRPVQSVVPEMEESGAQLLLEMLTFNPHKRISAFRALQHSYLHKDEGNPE
Sequence of human cyclin D1-CDK4 (P24385 whole entry partner): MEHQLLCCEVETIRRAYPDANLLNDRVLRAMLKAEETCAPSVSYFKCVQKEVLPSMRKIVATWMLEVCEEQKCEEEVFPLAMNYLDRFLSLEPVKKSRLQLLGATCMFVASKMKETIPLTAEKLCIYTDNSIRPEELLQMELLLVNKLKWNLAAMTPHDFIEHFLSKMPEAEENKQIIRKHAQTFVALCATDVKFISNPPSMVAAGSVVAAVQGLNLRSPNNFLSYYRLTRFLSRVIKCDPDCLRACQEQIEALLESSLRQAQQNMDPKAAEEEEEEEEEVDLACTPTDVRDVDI
Sequence of human cyclin B-CDK1 (P06493 whole entry): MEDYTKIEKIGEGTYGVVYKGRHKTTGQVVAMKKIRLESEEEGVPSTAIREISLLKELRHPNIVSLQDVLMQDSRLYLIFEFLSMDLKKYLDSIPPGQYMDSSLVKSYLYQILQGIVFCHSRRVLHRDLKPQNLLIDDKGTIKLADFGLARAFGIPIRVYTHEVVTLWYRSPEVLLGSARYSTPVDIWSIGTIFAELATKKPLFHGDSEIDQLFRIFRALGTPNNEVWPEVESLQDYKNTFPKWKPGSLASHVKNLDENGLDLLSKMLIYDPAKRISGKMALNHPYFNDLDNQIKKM
Sequence of human cyclin B-CDK1 (P14635 whole entry partner): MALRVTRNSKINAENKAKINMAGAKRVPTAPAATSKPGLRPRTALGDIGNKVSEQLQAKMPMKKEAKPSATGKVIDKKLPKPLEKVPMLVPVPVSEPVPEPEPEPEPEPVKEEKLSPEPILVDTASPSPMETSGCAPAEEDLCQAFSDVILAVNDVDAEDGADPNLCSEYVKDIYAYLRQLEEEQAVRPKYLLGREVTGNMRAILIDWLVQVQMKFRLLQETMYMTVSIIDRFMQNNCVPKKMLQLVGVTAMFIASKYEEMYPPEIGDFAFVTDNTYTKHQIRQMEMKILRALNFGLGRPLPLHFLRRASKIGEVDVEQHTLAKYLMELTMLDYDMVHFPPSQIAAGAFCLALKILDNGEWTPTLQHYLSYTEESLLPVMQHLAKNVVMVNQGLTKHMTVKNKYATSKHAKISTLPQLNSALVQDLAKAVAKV

Row | SMILES | Ki (human cyclin B-CDK1) [nM] | Ki (human cyclin E-CDK2; [2]) [nM] | Ki (human cyclin D1-CDK4) [nM] | IC50 [1] [nM] | Ki (human cyclin E-CDK2) [nM]
1 | COc1ccc(F)c(F)c1C(=S)c1cnc(NC2CCN(S(=O)(=O)c3ccccn3)CC2)nc1N [Example 10, {4-Amino-2-[1-(pyridine-2-sulfonyl)-piperidin-4-ylamino]-pyrimidin-5-yl}-(2,3-difluoro-6-methoxy-phenyl)-methanethione] | 3 | 1 |  |  | 
2 | COc1ccc(F)cc1C(=S)c1cnc(NCCCNS(C)(=O)=O)nc1N [Example 8, N-{3-[4-Amino-5-(5-fluoro-2-methoxy-thiobenzoyl)-pyrimidin-2-ylamino]-propyl}-methanesulfonamide] | 89 | 65 | 37 |  | 
3 | COc1ccc(F)c(F)c1C(=S)c1cnc(NC2CCN(S(N)(=O)=O)CC2)nc1N [Example 4, 4-[4-Amino-5-(2,3-difluoro-6-methoxy-thiobenzoyl)-pyrimidin-2-ylamino]-piperidine-1-sulfonic acid amide] | < 3 | < 1 | < 1 | 3 | 
4 | COc1ccc(F)cc1C(=S)c1cnc(NC2CCN(S(C)(=O)=O)CC2)nc1N [Example 5, [4-Amino-2-(1-methanesulfonyl-piperidin-4-ylamino)-pyrimidin-5-yl]-(5-fluoro-2-methoxy-phenyl)-methanethione] | < 10 |  | 1.3 | 81 | 1.3
5 | COc1ccc(F)c(F)c1C(=S)c1cnc(NC2CCN(S(=O)(=O)CCCN3CCOCC3)CC2)nc1N [Example 9, {4-Amino-2-[1-(3-morpholin-4-yl-propane-1-sulfonyl)-piperidin-4-ylamino]-pyrimidin-5-yl}(2,3-difluoro-6-methoxy-phenyl)-methanethione] | 14 | 1 |  |  | 
6 | CS(=O)(=O)N1CCC(Nc2ncc(C(=S)c3cccs3)c(N)n2)CC1 [Example 11, [4-Amino-2-(1-methanesulfonyl-piperidin-4-ylamino)-pyrimidin-5-yl]-thiophen-2-yl-methanethione] | 43 | 12 | 10 |  | 
7 | COc1ccc(F)cc1C(=S)c1cnc(NC2CCN(C(=O)OC(C)(C)C)CC2)nc1N [Example 17, 4-[4-Amino-5-(5-fluoro-2-methoxy-thiobenzoyl)-pyrimidin-2-ylamino]-piperidine-1-carboxylic acid tert-butyl ester] | 261 | 195 |  |  | 
8 | COc1ccc(F)c(F)c1C(=S)c1cnc(NC2CCN(S(C)(=O)=O)CC2)nc1N [Example 1, [4-Amino-2-(1-methanesulfonyl-piperidin-4-ylamino)-pyrimidin-5-yl]-(2,3-difluoro-6-methoxy-phenyl)-methanethione] | 0.13 |  | 0.17 | 20 | 
9 | CS(=O)(=O)N1CCC(Nc2ncc(C(=S)c3ccccc3)c(N)n2)CC1 [Example 16, [4-Amino-2-(1-methanesulfonyl-piperidin-4-ylamino)-pyrimidin-5-yl]-phenyl-methanethione] | 27 | 10 | 15 |  | 
10 | COc1ccc(F)c(F)c1C(=S)c1cnc(N[C@H]2CC[C@H](N(C)S(C)(=O)=O)CC2)nc1N [Example 3, N-{4-[4-Amino-5-(2,3-difluoro-6-methoxy-thiobenzoyl)-pyrimidin-2-ylamino]-cyclohexyl}-N-methylmethanesulfonamide] | 0.42 | 0.27 | 1.33 | 13 | 
11 | COc1ccc(F)c(F)c1C(=S)c1cnc(NC2CCN(S(C)(=O)=O)C2)nc1N (centres unmarked) [Example 18, [4-Amino-2-(1-methanesulfonyl-pyrrolidin-3-ylamino)-pyrimidin-5-yl]-(2,3-difluoro-6-methoxy-phenyl)-methanethione] |  | 1 | 2.8 |  | 
12 | COc1ccc(F)c(F)c1C(=S)c1cnc(Nc2ccc(S(C)(=O)=O)cc2)nc1N [Example 12, [4-Amino-2-(4-methanesulfonyl-phenylamino)-pyrimidin-5-yl]-(2,3-difluoro-6-methoxy-phenyl)-methanethione] | 3 | 1 | 7 |  | 
13 | CS(=O)(=O)N1CCC(Nc2ncc(C(=S)c3c(F)c(F)cc4ncoc34)c(N)n2)CC1 [Example 7, [4-Amino-2-(1-methanesulfonyl-piperidin-4-ylamino)-pyrimidin-5-yl]-(5,6-difluoro-benzooxazol-7-yl)-methanethione] | 6 | 16 | 5 |  | 
